Experimental data from patent US8323956B2, “Distal tip of biosensor transducer comprising enzyme for deamination” (Colorado State University Research Foundation, priority 2001, dated 2012).

Legend:
[1] = target: T1, LinB haloalkane dehalogenase (Sphingobium indicum, UniProt D4Z2G1); settings: reported by Damborsky et al. 2001; cited from earlier work
T1 sequence (D4Z2G1 1-296): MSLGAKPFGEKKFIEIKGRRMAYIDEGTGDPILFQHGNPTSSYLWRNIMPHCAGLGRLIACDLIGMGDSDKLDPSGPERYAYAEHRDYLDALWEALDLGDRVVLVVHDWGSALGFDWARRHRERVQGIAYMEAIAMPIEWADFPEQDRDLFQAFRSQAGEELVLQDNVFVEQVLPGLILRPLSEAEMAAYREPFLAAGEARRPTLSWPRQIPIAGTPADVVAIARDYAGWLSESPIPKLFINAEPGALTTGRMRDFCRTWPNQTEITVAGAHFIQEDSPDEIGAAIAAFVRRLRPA

[2] = target: T1, LinB haloalkane dehalogenase; assay: LinB biosensor sensitivity for halogenated hydrocarbons
From the text: The haloalkane dehalogenase LinB was used to develop biosensors for several halogenated hydrocarbons.

[3] = target: T2, E. coli pAQN (linB) (Sphingobium indicum, UniProt D4Z2G1); assay: Biosensor response to 1,2-dibromoethane measured repeatedly over 50 days; type: cell-based; settings: 5 ppb of 1,2-dibromoethane, in more than 50 days
T2 construct: expressed in transfected cells; host or cells: E. coli carrying plasmid pAQN
Experimental: FIG. 17 depicts a biosensor response to 5 μg/L 1,2-dibromoethane using E. coli pAQN (linB) as the biocomponent, measured repeatedly over 50 days, according to an embodiment.
The release of a proton from the dehalogenation reaction is detected as a pH change at the end of the optical fiber, and thus as a change in fluorescence intensity (FIG. 14). Fiber optic biosensors for 1,2-dichloroethane (DCA), ethylene dibromide (EDB), atrazine, 1-chlorohexane and Lindane (γ-hexachlorocyclohexane) have been developed (Campbell, 1998; Das, N., Development and Characterization of a Biosensor for Atrazine in Groundwater, Chemical Engineering. 2000, Colorado State University: Fort Collins). These biosensors have linear response ranges over several orders of magnitude in concentration, and detection in the ppt (ng/L) range has been achieved (FIG. 15). […] This fact, and the stability of the enzymes, allows the biosensors to retain activity for many weeks. In one test (FIG. 16), the biosensor response to 5 ppb of 1,2-dibromoethane declined by only 20% in more than 50 days. Sensitive measurement is still possible even at the end of the test; only a recalibration is required.

[4] = target: T3, melamine deaminase TriA (Paracidovorax citrulli, UniProt Q9EYU0); assay: TriA (melamine deaminase) biosensor response, cells in calcium alginate on pH-sensitive optical fiber; type: cell-based, Escherchia coli DH5α pJS3
T3 construct: expressed in transfected cells; host or cells: Escherichia coli DH5α pJS3
From the text: Cells of Escherchia coli DH5α pJS3 (Seffernick et al., J. Bact. 183 (8), 2405-2410, 2001) were immobilized in calcium alginate on the tip of an optical fiber coated with a PVA-fluoresceinamine conjugate, a pH-sensitive fluorophore. The plasmid pJS3 contains the gene triA, and thus the E. coli cells can express the melamine deaminase TriA, which catalyzes the cleavage of one of the amine groups. The products of this reaction are ammeline (2-hydroxy-4,6-diamino-s-triazine) and ammonia.
The release of ammonia led to an increase in pH on the tip of the optical fiber, which was detected as an increase in the fluorescence of fluoresceinamine (FIG. 21).
The melamine deaminase biosensor was also responsive to the related amine-containing chemical 2-chloro-4,6-diamino-s-triazine (CAAT) (Table 12 and FIG. 22).

T3 sequence (Q9EYU0 whole entry): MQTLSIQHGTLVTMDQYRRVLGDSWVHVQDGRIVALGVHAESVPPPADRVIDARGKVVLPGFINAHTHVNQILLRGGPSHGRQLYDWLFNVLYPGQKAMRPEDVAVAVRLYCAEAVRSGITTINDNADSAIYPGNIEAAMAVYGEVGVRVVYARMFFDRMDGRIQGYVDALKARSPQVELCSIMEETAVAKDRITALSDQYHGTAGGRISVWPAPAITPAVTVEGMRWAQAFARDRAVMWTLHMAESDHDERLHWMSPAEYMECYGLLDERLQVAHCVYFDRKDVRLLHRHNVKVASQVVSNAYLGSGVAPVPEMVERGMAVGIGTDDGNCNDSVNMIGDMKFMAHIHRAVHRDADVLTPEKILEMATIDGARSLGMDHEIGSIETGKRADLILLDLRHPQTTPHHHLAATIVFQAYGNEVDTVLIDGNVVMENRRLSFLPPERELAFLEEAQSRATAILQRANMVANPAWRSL

Row | SMILES | LinB activity (% of 1-chlorobenzene rate) [1] | Biosensor sensitivity (ΔV/ppb analyte) [2] | decline of biosensor response [3] | Response (count) ([4]; 0.12 mg/L) | Response time ([4]; 0.12 mg/L) | Response (count) ([4]; 1.21 mg/L) | Response time ([4]; 1.21 mg/L)
1 | BrCCBr [1,2-dibromoethane] | 355% | 0.29 ΔV/ppb analyte | 20% |  |  |  | 
2 | CCCCCCCl [1-chlorohexane] | 145% | 0.21 ΔV/ppb analyte |  |  |  |  | 
3 | Nc1nc(N)nc(Cl)n1 [CAAT, 2-chloro-4,6-diamino-s-triazine] |  |  |  | 150 count | 2 h | 800 count | 10 h
4 | Nc1nc(N)nc(N)n1 [Melamine, 2,4,6-triamino-1,3,5-triazine] |  |  |  | 1000 count | 20 h | 2700 count | 16 h
